Measured values from ChEMBL document CHEMBL1133870, “Two novel cytotoxic and antimicrobial triterpenoids from Pseudolarix kaempferi” (Bioorg Med Chem Lett, 2001).
Converted amounts (≈) assume the structure as drawn.

Legend:
A549 = assay: Compound was tested for its cytotoxicity against A 549 cell line; assay type: functional, cell-based; details: Homo sapiens
P388 = assay: Compound was tested for its cytotoxicity against P388 cell line; assay type: functional, cell-based; details: Mus musculus
Pseudomonas aeruginosa = assay: Compound was tested for minimum inhibitory concentration against Pseudomonas aeruginosa […]; assay type: functional
Escherichia coli = assay: Compound was tested for minimum inhibitory concentration against Escherichia coli […]; assay type: functional
Micrococcus luteus = assay: Compound was tested for minimum inhibitory concentration against Micrococcus luteus ATCC 9341; assay type: functional
Staphylococcus aureus = assay: Compound was tested for minimum inhibitory concentration against Staphylococcus aureus ATCC 25923; assay type: functional

Row | SMILES | IC50 (A549) | IC50 (P388) | MIC (Pseudomonas aeruginosa) | MIC (Escherichia coli) | MIC (Micrococcus luteus) | MIC (Staphylococcus aureus)
1 | C[C@H](CC(=O)O)[C@]1(C)CC=C2C3=CCC4C(C)(C)[C@H](O)CC[C@]4(C)[C@@H]3CC[C@]21C (stereo partly specified) | 60 µM | 55 µM | – | – | – | –
2 | C[C@H](Cc1cc(C(=O)O)co1)[C@]1(C)CC=C2C3=CCC4C(C)(C)[C@H](O)CC[C@]4(C)[C@@H]3CC[C@]21C (stereo partly specified) | 54 µM | 50 µM | > 215 µM | 107 µM (≈ 49.9 µg/mL) | 13 µM (≈ 6.07 µg/mL) | 27 µM (≈ 12.6 µg/mL)
3 | C=C[C@@](C)(/C=C/c1ccc(O)cc1)CCC=C(C)C [BAKUCHIOL] | – | – | > 780 µM | > 780 µM | 10 µM (≈ 2.56 µg/mL) | 19 µM (≈ 4.87 µg/mL)
4 | C=CCc1ccc(O)c(-c2cc(CC=C)ccc2O)c1 [MAGNOLOL] | – | – | > 750 µM | > 750 µM | 48 µM (≈ 12.8 µg/mL) | 48 µM (≈ 12.8 µg/mL)
